Literature values, collected in US20070213388A1, “Acetylcholinesterase Inhibitors and N-Methyl-D-Aspartate Antagonists Useful in the Treatment of Cognitive Disorders” (priority 2004, published 2007).

Key:
brain ACh levels = details: conscious, freely-moving rats, striatal microdialysis
[1] = rats, i.v. dosing
AChE = molecular target: T1, AChE (Rattus norvegicus, UniProt P37136); details: rats, after phenserine administration
T1 construct: from tissue; host or cells: rat
T1 sequence (P37136 32-614): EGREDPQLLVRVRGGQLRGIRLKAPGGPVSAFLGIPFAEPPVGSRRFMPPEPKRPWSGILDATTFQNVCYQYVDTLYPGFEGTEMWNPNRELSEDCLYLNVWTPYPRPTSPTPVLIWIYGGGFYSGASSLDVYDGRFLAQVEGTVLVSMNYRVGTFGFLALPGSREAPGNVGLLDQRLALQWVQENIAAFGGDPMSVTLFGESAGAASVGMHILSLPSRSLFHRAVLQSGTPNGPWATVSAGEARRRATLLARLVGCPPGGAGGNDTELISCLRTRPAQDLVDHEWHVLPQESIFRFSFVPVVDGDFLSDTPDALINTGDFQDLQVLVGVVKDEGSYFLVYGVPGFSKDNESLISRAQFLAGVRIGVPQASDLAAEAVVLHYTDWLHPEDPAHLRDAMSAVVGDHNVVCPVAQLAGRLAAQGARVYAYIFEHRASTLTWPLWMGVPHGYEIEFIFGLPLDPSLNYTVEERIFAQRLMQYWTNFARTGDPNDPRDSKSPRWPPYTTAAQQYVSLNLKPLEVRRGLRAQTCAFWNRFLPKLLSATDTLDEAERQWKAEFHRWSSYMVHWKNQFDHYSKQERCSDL

cholinesterase = details: see WO 00/248150
[2] = molecular target: neuronal receptors (NMDA receptor); details: at -67 mV
[3] = system: cytochrome P450 (CYP 450) isoenzymes; details: in vitro
[4] = not given; remark: listed apart in the source

## CN1CC[C@]2(C)c3cc(OC(=O)Nc4ccccc4)ccc3N(C)C12 (single isomer, unassigned; (-)) [phenserine, (−)-N-phenylcarbamoyl eseroline]
Brain ACh levels
  rise in brain ACh levels: greater than 3 fold
[1]
  brain drug levels relative to plasma: 10 fold
  time to peak drug levels: ≤ 5 min
[1]; brain
  half-life of brain drug levels: 8.5 min
[1]; plasma
  half-life of plasma drug levels: 12.6 min
AChE
  inhibition of AChE: > 70%

## CN1CC[C@@]2(C)c3cc(OC(=O)Nc4ccccc4)ccc3N(C)C12 (single isomer, unassigned; (+)) [(+)-phenserine]
cholinesterase
  cholinesterase activity: lacks cholinesterase activity

## CC12CC3CC(C)(C1)CC(N)(C3)C2.Cl [memantine, 1-amino-3,5-dimethyladamantane hydrochloride]
Crosses the blood brain barrier
  CSF/serum ratio: 0.52
humans, oral dose
  terminal elimination half-life: 60 to 80 h
[2]
  IC50: 1400 nM
[3]
  inhibition of cytochrome P450 (CYP 450) isoenzymes: does not inhibit
[4]
  water solubility: water soluble
